Data on twelve compounds can be found in patent publication US20140220100A1, “VACCINE COMPOSITION FOR TRANSDERMAL ADMINISTRATION” (NITTO DENKO CORPORATION, priority 2013, published 2014).

Structures are written as SMILES.

The test relates to IFN-γ-producing cells (spleen cells co-cultured with antigen peptide). In words: Immunity Induction Test 1 in mouse (liquid formulation for external use), ELISPOT. It is filed as in vivo. To be noted: summary of Tables 1, 2 and 4; transdermal HER2/neu E75 peptide vaccine composition. The protocol:
A cellulose non-woven fabric (area 0.8 cm^2) was attached to a middle part of an adhesive tape for fixing to prepare a composite substrate. The non-woven fabric part of the composite substrate was immersed with 67 μL of the liquid formulation for external use. Thus a sample for immunity induction test was prepared.
The liquid formulations for external use prepared as above described were used to perform an immunity induction test using a model mouse for immunological evaluation. The immunity induction level was evaluated by ELISPOT method. Specifically, the hair of the back skin of a mouse was cut, and the mouse was kept in a period for recovering from the skin damage. Thereafter, each sample was administered to the back skin of the mouse for a predetermined period, and then removed. After keeping the mouse for a predetermined day, the level of the cellular immunity induction specific for the antigen was evaluated. On a predetermined day after the administration, the spleen of the mouse was excised to prepare a suspension of the spleen cells. Spleen cells (3×10^6 cells/well) and an antigen peptide (100 μM) were added together with a culture solution into a well of ELISPOT plate containing an immobilized anti-mouse IFN-γ […], and co-cultured at 37° C. in 5% CO2 for 20 hours. The spot number of IFN-γ-producing cells was evaluated by ELISPOT method (the number of the spot/3×10^6 cells). The dosage of the liquid formulation for external use was all 67 μL as described above, and the administration was performed once (24 hr/week), the spleen was excised 6 days after the administration.
The results of the immunity induction test, and the measurement results of TSLP level and transepidermal water loss are shown in Table 1.
`CCCCCCCCCC(=O)O` [decanoic acid]: the “promotion of induction of cellular immunity by addition of a pharmacologically acceptable acid as second cellular immunity induction promoter” value was “effective”.

Consider `CC(C)CCCCCCCCCCCCCCC(=O)O` [isostearic acid], for which the “promotion of induction of cellular immunity by addition of a pharmacologically acceptable acid as second cellular immunity induction promoter” value is recorded as “effective”.

Consider `CC(O)C(=O)O` (stereo not drawn) [lactic acid], for which the “promotion of induction of cellular immunity by addition of a pharmacologically acceptable acid as second cellular immunity induction promoter” value is recorded as “effective”.

Turning to `CCCCCCCCCCCC(=O)O` [lauric acid], the “promotion of induction of cellular immunity by addition of a pharmacologically acceptable acid as second cellular immunity induction promoter” value was “effective”.

Turning to `O=C(O)/C=C\C(=O)O` [maleic acid], the “promotion of induction of cellular immunity by addition of a pharmacologically acceptable acid as second cellular immunity induction promoter” value is “effective”.

As for `O=C(O)CC(O)C(=O)O` (stereo not drawn) [malic acid], the “promotion of induction of cellular immunity by addition of a pharmacologically acceptable acid as second cellular immunity induction promoter” value is reported as “effective”.

In the case of `CS(=O)(=O)O` [methanesulfonic acid], the “promotion of induction of cellular immunity by addition of a pharmacologically acceptable acid as second cellular immunity induction promoter” value is reported as “effective”.

With `CCCCCCCCCCCCCC(=O)O` [myristic acid], the “promotion of induction of cellular immunity by addition of a pharmacologically acceptable acid as second cellular immunity induction promoter” value is on record as “effective”.

On to `CCCCCCCC/C=C\CCCCCCCC(=O)O` [oleic acid], for which the “promotion of induction of cellular immunity by addition of a pharmacologically acceptable acid as second cellular immunity induction promoter” value is “effective”.

With `CCCCCCCCCCCCCCCC(=O)O` [palmitic acid], the “promotion of induction of cellular immunity by addition of a pharmacologically acceptable acid as second cellular immunity induction promoter” value is “effective”.

For `O=C(O)c1ccccc1O` [salicylic acid], the “promotion of induction of cellular immunity by addition of a pharmacologically acceptable acid as second cellular immunity induction promoter” value is given as “effective”.

For `CCCCCCCCCCCCCCCCCC(=O)O` [stearic acid], the “promotion of induction of cellular immunity by addition of a pharmacologically acceptable acid as second cellular immunity induction promoter” value is recorded as “effective”.
